Assay results: paper PMC12188521 (RSC Advances, 2025)

Experiments:
[1] = target: acetylcholinesterase (AChE) (Homo sapiens, UniProt P22303); experiment: biochemical
[2] = target: butyrylcholinesterase (BuChE) (Homo sapiens, UniProt P06276); experiment: In vitro butyrylcholinesterase inhibitory activity; type: biochemical
Sequence of butyrylcholinesterase (BuChE) (P06276 29-602): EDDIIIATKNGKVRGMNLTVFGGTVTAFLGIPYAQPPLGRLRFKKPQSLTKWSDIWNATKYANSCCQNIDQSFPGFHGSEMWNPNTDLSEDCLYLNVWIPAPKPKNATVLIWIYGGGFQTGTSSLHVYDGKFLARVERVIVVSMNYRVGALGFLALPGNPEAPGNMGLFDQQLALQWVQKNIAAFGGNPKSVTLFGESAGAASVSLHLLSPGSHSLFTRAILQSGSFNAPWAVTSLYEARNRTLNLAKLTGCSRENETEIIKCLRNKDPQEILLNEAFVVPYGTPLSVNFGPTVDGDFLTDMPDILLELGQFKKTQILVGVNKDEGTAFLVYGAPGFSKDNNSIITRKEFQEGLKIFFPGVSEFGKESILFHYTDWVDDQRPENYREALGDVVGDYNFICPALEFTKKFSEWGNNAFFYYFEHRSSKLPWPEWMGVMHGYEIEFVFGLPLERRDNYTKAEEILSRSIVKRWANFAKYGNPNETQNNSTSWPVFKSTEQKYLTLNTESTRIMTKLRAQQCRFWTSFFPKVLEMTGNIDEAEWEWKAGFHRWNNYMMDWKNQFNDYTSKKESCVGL

Sequence of acetylcholinesterase (AChE) (P22303 32-614, species assumed): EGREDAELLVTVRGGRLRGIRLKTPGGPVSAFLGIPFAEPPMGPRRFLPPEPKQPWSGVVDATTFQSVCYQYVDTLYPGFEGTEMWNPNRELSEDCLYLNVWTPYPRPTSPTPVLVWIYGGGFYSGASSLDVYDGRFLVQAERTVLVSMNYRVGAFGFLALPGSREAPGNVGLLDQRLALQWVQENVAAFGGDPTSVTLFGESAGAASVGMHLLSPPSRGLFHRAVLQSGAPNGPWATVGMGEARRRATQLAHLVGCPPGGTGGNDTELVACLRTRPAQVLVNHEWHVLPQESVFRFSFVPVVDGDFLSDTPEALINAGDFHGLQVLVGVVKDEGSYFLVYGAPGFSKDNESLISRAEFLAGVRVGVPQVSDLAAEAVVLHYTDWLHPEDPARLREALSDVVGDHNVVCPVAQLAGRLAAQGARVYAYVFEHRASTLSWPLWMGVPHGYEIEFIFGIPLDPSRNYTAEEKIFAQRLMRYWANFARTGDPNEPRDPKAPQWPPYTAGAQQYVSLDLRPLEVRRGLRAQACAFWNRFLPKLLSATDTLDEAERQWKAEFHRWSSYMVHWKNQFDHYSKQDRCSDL

Compound | IC50 [1] [µM] | IC50 [2] [µM]
CCN(CC)c1ccc(C=NN=C(C)c2ccc(OCc3ccc(Br)cc3)cc2)cc1 [Compound 2a, 4-(((1-(4-((4-bromobenzyl)oxy)phenyl)ethylidene)hydrazineylidene)methyl)-N,N-diethylaniline] | 44.36 ± 0.33 | 77.9 ± 1.46
COc1cccc(C=NN=C(C)c2ccc(OCc3ccc(Br)cc3)cc2)c1O [Compound 2b, 2-(((1-(4-((4-Bromobenzyl)oxy)phenyl)ethylidene)hydrazono)methyl)-6-methoxyphenol] | 18.6 ± 0.21 | 35.31 ± 0.01
CC(=NN=Cc1ccc(Br)cc1F)c1ccc(OCc2ccc(Br)cc2)cc1 [Compound 2c, 1-(4-Bromo-2-fluorobenzylidene)-2-(1-(4-((4-bromobenzyl)oxy)phenyl)ethylidene)hydrazine] | 150 ± 2.26 | 175 ± 2.96
CC(=NN=Cc1ccc(Cl)cc1)c1ccc(OCc2ccc(Br)cc2)cc1 [Compound 2d, 1-(1-(4-((4-Bromobenzyl)oxy)phenyl)ethylidene)-2-(4-chlorobenzylidene)hydrazine] | 139 ± 2.33 | 161.8 ± 0.07
CC(=NN=Cc1ccc(C)o1)c1ccc(OCc2ccc(Br)cc2)cc1 [Compound 2e, 1-(1-(4-((4-Bromobenzyl)oxy)phenyl)ethylidene)-2-((5-methylfuran-2-yl)methylene) hydrazine] | 98.21 ± 0.01 | 136 ± 2.61
COc1ccc(C=NN=C(C)c2ccc(OCc3ccc(Br)cc3)cc2)cc1 [Compound 2f, 1-(1-(4-((4-Bromobenzyl)oxy)phenyl)ethylidene)-2-(4-methoxybenzylidene)hydrazine] | 48.37 ± 0.06 | 76.3 ± 1.17
CC(=NN=Cc1ccc(C)cc1)c1ccc(OCc2ccc(Br)cc2)cc1 [Compound 2g, 1-(1-(4-((4-Bromobenzyl)oxy)phenyl)ethylidene)-2-(4-methylbenzylidene)hydrazine] | 62.28 ± 0.42 | 98.7 ± 1.18
CC(=NN=Cc1cccc2ccccc12)c1ccc(OCc2ccc(Br)cc2)cc1 [Compound 2h, 1-(1-(4-((4-Bromobenzyl)oxy)phenyl)ethylidene)-2-(naphthalen-1-ylmethylene)hydrazine] | 128.2 ± 0.98 | 166.3 ± 1.2
CC(=NN=Cc1ccc(C=O)cc1)c1ccc(OCc2ccc(Br)cc2)cc1 [Compound 2i, 4-(((1-(4-((4-Bromobenzyl)oxy)phenyl)ethylidene)hydrazono)methyl)benzaldehyde] | 141.8 ± 0.77 | 177 ± 3.53
